Common to all, as to test: growth of human tumour cells (NCI), 48 h
Test [1] relates to 786-0 renal.
Test [2] deals with A549 NSCLC.
The subject of test [3] is HS 578T breast.
For test [4], the system named is K-562 leukemia.
For test [5], the system named is NCI-H226 lung.
Test [6] concerns OVCAR-4 ovarian.
The subject of test [7] is OVCAR-8 ovarian.
The test system of test [8] is SNB-19 CNS.
Test [9] deals with TK-10 renal.
Test [10] relates to UACC-257 melanoma.

The structures appear in SMILES notation.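 1) Cells in 96-well plates. 2) Compound, 48 h, 5 concentrations. 3) Linear interpolation between surrounding doses. 4) Unreached endpoint = highest concentration. Here, GI50 denotes the concentration required for 50% inhibition of growth. TGI is the concentration that stops growth completely.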

For the compound `COC(=O)c1oc2c(C(=O)/C=C/c3ccc(OC)cc3)c(OCCN(C)C)ccc2c1C`, the GI50 in [1] was 9.4 µM; in test [2], 5.08 µM; in test [3] it was 6.27 µM; in test [4] it was 2.24 µM; in [5], 13.1 µM; in test [6], 5.06 µM. Moreover, the GI50 in test [7] is 4.96 µM; in [8], 10.9 µM; in test [9] it was 9.79 µM; in test [10], 14.1 µM. In addition, the TGI was 22.3 µM in test [1]; 23 µM in [2]; 22.4 µM in test [3]; 8.49 µM in test [4]; 27.8 µM in test [5]; 16.8 µM in [6]. Besides, the TGI in test [7] amounted to 21.5 µM; in test [8], 23.5 µM; in test [9] it was 23 µM; in [10], 29.2 µM.
In the case of `CCOc1ccn(-c2ccc(F)cc2)c(=O)c1C(=O)Nc1ccc(Oc2ccnc(N)c2Cl)c(F)c1`, the GI50 was 19 µM in test [1]; 9.12 µM in [2]; 3.7 µM in test [3]; 4.42 µM in test [4]; 10.6 µM in test [5]; 19.1 µM in test [6]. The GI50 in test [7] was 15.2 µM; in [8], 27.8 µM; in [9], 15.1 µM; in [10] it was 5.99 µM. In addition, the TGI in test [1] is greater than 100 µM; in [2], 86.2 µM; in test [3], 30.6 µM; in test [4] it was greater than 100 µM; in test [5], greater than 96.1 µM; in test [6], greater than 100 µM. Besides, the TGI is greater than 100 µM in [7], greater than 100 µM in [8], 55.2 µM in [9] and 43.4 µM in test [10].
Consider `Cn1c2c(c3c(Cl)nncc31)Cc1ccccc1-2`, for which the GI50 in [1] is 23.6 µM; in test [2], 20.6 µM; in test [3], 28 µM; in [4], 25.9 µM; in test [5], 15.6 µM; in [6], 23.9 µM. The GI50 was 25.5 µM in test [7], 12.9 µM in test [8], 26.2 µM in test [9] and 48.7 µM in [10]. Further, the TGI was greater than 100 µM in test [1]; greater than 100 µM in [2]; greater than 100 µM in test [3]; greater than 100 µM in test [4]; 46.8 µM in test [5]; greater than 100 µM in test [6]. The TGI in test [7] is greater than 100 µM; in test [8], 51.1 µM; in [9], greater than 100 µM; in [10], greater than 100 µM.
Turning to `CCOC(=O)C(C#N)C1=CC(=O)C(=O)c2ccc(O)cc21` (stereo not given), the TGI in test [1], in test [2], in test [3], in test [4], in test [5] and in [6] was greater than 100 µM each time. The TGI in test [7], in [8], in test [9] and in [10] was greater than 100 µM throughout.
In the case of `CCc1nc2ccc(N=Nc3c(O)ccc4ccccc34)cc2[nH]1`, the TGI in [1] was 37.7 µM; in test [2] it was 55.8 µM; in test [3] it was 48.6 µM; in test [4], greater than 66.1 µM; in test [5] it was 41.1 µM; in [6] it was 28.4 µM. Further, the TGI is 21.6 µM in [7], greater than 66 µM in [8], 32.6 µM in [9] and 29.4 µM in test [10].
`Cc1cc(Nc2cc(N3CCN(C)CC3)nc(/C=C/c3ccccc3)n2)n[nH]1`: the GI50 was 0.789 µM in test [1]; 0.501 µM in [2]; 0.517 µM in test [3]; 0.644 µM in test [4]; 1.29 µM in [5]; 0.644 µM in test [6]. Besides, the GI50 in [7] is 1.68 µM; in test [8] it was 1.49 µM; in test [9] it was 0.797 µM; in test [10], 1.98 µM. The TGI in test [1] was greater than 6.25 µM; in [2], greater than 10 µM; in test [3] it was 1.86 µM; in [4], greater than 10 µM; in test [5], greater than 9.46 µM; in test [6], greater than 10 µM. In addition, the TGI was greater than 10 µM in [7], greater than 10 µM in [8], greater than 5.11 µM in test [9] and greater than 5.32 µM in test [10].
As to `CC[C@@H](C)/C=C(C)/C=C/C(=O)c1c(O)c(-c2ccc(O)cc2)cn(O)c1=O`, the GI50 in test [1] was 0.361 µM; in [2] it was 1.31 µM; in test [3], 2.83 µM; in test [4], 0.392 µM; in test [5], 0.274 µM; in test [6], 0.261 µM. Besides, the GI50 in [7] was 0.341 µM; in test [8], 0.575 µM; in test [9] it was 0.524 µM; in test [10], 0.317 µM. Further, the TGI was 5.17 µM in test [1]; 12 µM in [2]; 34.5 µM in test [3]; greater than 41.2 µM in test [4]; 4.88 µM in test [5]; 12.5 µM in test [6]. Besides, the TGI in test [7] came out at 12 µM; in [8], 16.3 µM; in test [9], 15.3 µM; in [10], 6.95 µM.
Consider `CC(=O)N1N=C(c2ccc(Nc3nc(Nc4ccc(F)cc4)nc(Nc4ccc(F)cc4)n3)cc2)CC1c1ccc(N(C)C)cc1` (stereo not given), for which the GI50 in [1] is 5.09 µM; in [2], 4.58 µM; in test [3] it was 1.6 µM; in test [4], 2.69 µM; in test [5], 3.29 µM; in [6] it was 3.77 µM. For the same compound, the GI50 was 2.72 µM in [7], 16.1 µM in [8], 7.02 µM in test [9] and 7.14 µM in test [10]. The TGI is 23.3 µM in test [1]; 26.8 µM in [2]; 9.02 µM in [3]; 7.31 µM in test [4]; 14.9 µM in test [5]; greater than 100 µM in [6]. Also, the TGI in test [7] is 10.1 µM; in test [8], greater than 100 µM; in [9], 39.2 µM; in test [10], 23.5 µM.
Turning to `NS(=O)(=O)c1cc(C(=O)O)c(O)c2ccccc12`, the TGI in test [1], in [2], in [3], in test [4], in [5] and in [6] was greater than 100 µM each time. The TGI in test [7], in test [8], in test [9] and in test [10] was greater than 100 µM throughout.

Values taken from PubChem BioAssay (NCI).
